Source: PubChem BioAssay AID256 (DTP/NCI, 2004)
Several values for one entry are separate records, joined by “and”; a condition that tells them apart may be missing. Equal values may be shown once. Inconclusive results and toxic doses are left out. Rule for the calls: active = survival T/C of 150% or more; inactive = T/C below 125% in these data.

Test system: CD2F1 mice, L1210 leukemia ip, survival T/C
Experiment: NCI In Vivo Anticancer Drug Screen. Data for tumor model L1210 Leukemia (intraperitoneal) in CD2F1 (CDF1) mice
Settings: endpoint: mean survival time, higher = longer survival
Procedure, shortened: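 Activity against a transplanted murine tumor was judged by comparing the compound group with a vehicle group. The outcome in the treated animals was divided by that in the controls.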

[1] = dose: 100.0 mg/kg/injection, schedule: Q01DX009 (ip), vehicle: saline with Tween-80

Measured: T/C

CCCCCCCCCCCC[N+]1(C)CCOCC1
inactive: dose: 12.5 mg/kg/injection, schedule: Q01DX009 (ip), vehicle: Klucel (hydroxypropylcellulose) (HPC) 102 % of control | dose: 25.0 mg/kg/injection, schedule: Q01DX009 (ip), vehicle: Klucel (hydroxypropylcellulose) (HPC) 98 % of control | dose: 50.0 mg/kg/injection, schedule: Q01DX009 (ip), vehicle: Klucel (hydroxypropylcellulose) (HPC) 98 % of control

O=C1/C(=C/c2ccc(Cl)cc2Cl)CCC/C1=C\c1ccc(Cl)cc1Cl
inactive: [1] 87 % of control

S=C(N/N=C/c1ccccn1)N/N=C/c1ccccn1
inactive: dose: 20.0 mg/kg/injection, schedule: Q01DX009 (ip), vehicle: saline with Tween-80 102 % of control | dose: 33.0 mg/kg/injection, schedule: Q01DX009 (ip), vehicle: saline with Tween-80 117 % of control | dose: 50.0 mg/kg/injection, schedule: Q01DX009 (ip), vehicle: saline with Tween-80 113 % of control | dose: 75.0 mg/kg/injection, schedule: Q01DX009 (ip), vehicle: saline with Tween-80 119 % of control and 101 % of control

ICC1COC(CI)CO1 (centres undefined)
inactive: [1] 102 % of control | dose: 100.0 mg/kg/injection, schedule: Q04DX003 (ip), vehicle: saline with Tween-80 105 % of control | dose: 200.0 mg/kg/injection, schedule: Q01DX009 (ip), vehicle: saline with Tween-80 96 % of control | dose: 200.0 mg/kg/injection, schedule: Q04DX003 (ip), vehicle: saline with Tween-80 110 % of control | dose: 400.0 mg/kg/injection, schedule: Q01DX009 (ip), vehicle: saline with Tween-80 100 % of control | dose: 400.0 mg/kg/injection, schedule: Q04DX003 (ip), vehicle: saline with Tween-80 100 % of control
